Data taken from ChEMBL document CHEMBL5303304, “EUbOPEN Chemogenomics Library - IncuCyte” (2023).

Key:
Type in all cases: toxicity, cell-based
Fibroblast = test: Incucyte cell viability with human fibroblast; conditions: 10 µM, compound concentration 10 uM
U2OS = test: Incucyte cell viability with U2OS; conditions: human, 10 µM, compound concentration 10 uM
HEK-293T = test: Incucyte cell viability with HEK293T; conditions: human, 10 µM, compound concentration 10 uM
Further: unitless GR value; below 1 slowed growth and below 0 cell loss.

Compound | Growth Rate (Fibroblast; 6 h, replicate number 1) | Growth Rate (U2OS; 12 h, replicate number 2) | Growth Rate (U2OS; 18 h, replicate number 1) | Growth Rate (HEK-293T; 6 h, replicate number 1) | Growth Rate (HEK-293T; 6 h, replicate number 2) | Growth Rate (HEK-293T; 12 h, replicate number 1) | Growth Rate (HEK-293T; 12 h, replicate number 2) | Growth Rate (HEK-293T; 18 h, replicate number 1) | Growth Rate (HEK-293T; 18 h, replicate number 2) | Growth Rate (HEK-293T; 24 h, replicate number 1) | Growth Rate (HEK-293T; 24 h, replicate number 2) | Growth Rate (Fibroblast; 24 h, replicate number 2) | Growth Rate (U2OS; 0 h, replicate number 1) | Growth Rate (U2OS; 12 h, replicate number 1) | Growth Rate (U2OS; 18 h, replicate number 2) | Growth Rate (Fibroblast; 24 h, replicate number 1) | Growth Rate (Fibroblast; 6 h, replicate number 2) | Growth Rate (Fibroblast; 12 h, replicate number 2) | Growth Rate (Fibroblast; 18 h, replicate number 2) | Growth Rate (U2OS; 24 h, replicate number 2) | also measured
CCC(C)(C)NC(=NC#N)Nc1cccnc1 | -1 | 0.85 | 1 | 0.19 | 0.56 | 0.42 | 0.56 | 0.64 | 0.78 | 0.85 | 0.95 | – | – | – | – | – | – | – | – | – | Growth Rate (U2OS; 0 h, replicate number 2): -0.68
Cc1nccn1CC1CCc2c(c3ccccc3n2C)C1=O.Cl (configuration not stated) | – | – | 0.91 | 0.82 | 0.6 | – | 0.75 | – | 0.79 | – | 0.87 | 0.9 | -0.28 | 0.96 | 0.88 | – | – | – | – | – | Growth Rate (U2OS; 6 h, replicate number 1): 0.77; Growth Rate (U2OS; 6 h, replicate number 2): 0.44
O=C(Nc1ccc(Cl)nc1)c1ccc(Cl)cc1 | -0.32 | – | – | 0.33 | 0.16 | 0.71 | 0.63 | 0.59 | 0.53 | 0.63 | 0.65 | – | -0.12 | 0.95 | – | 0.54 | – | – | – | – | Growth Rate (Fibroblast; 0 h, replicate number 1): -0.21; Growth Rate (Fibroblast; 0 h, replicate number 2): -0.9; Growth Rate (U2OS; 0 h, replicate number 2): -0.39
CC[C@H](C(=O)Nc1ccccc1N1CCCC1)c1ccccc1 | – | – | – | 0.92 | 0.91 | – | – | – | – | – | – | 0.9 | – | – | 0.84 | -0.08 | -0.59 | 0.33 | 0.67 | 0.84 | Growth Rate (Fibroblast; 18 h, replicate number 1): -0.04
Oc1cccc(Nc2ccnc3[nH]c4ccccc4c23)c1 | -0.78 | 0.91 | 0.69 | -0.94 | -0.96 | -0.75 | -0.62 | -0.41 | -0.28 | -0.06 | 0 | 0.3 | – | – | 0.7 | 0.48 | -0.81 | -0.25 | 0.18 | 0.63 | Growth Rate (Fibroblast; 0 h, replicate number 1): 0.68; Growth Rate (Fibroblast; 12 h, replicate number 1): -0.34; Growth Rate (U2OS; 24 h, replicate number 1): 0.73
O=c1c(Br)ccc2n1C[C@@H]1CNC[C@H]2C1 | -0.94 | – | – | 0.59 | – | 0.4 | – | 0.61 | – | 0.89 | – | 0.89 | – | – | – | – | – | – | – | – | Growth Rate (Fibroblast; 0 h, replicate number 1): 0.52; Growth Rate (Fibroblast; 0 h, replicate number 2): -0.26; Growth Rate (U2OS; 6 h, replicate number 2): 0.92
Cc1c(C(=O)NCCCN(C)C)sc2ncnc(Nc3ccc(F)cc3OC(C)CF)c12 (configuration not stated) | -1 | – | – | -0.52 | 0.2 | -0.29 | 0.14 | -0.13 | 0.14 | 0.07 | 0.16 | 0.55 | – | – | – | – | – | – | 0.93 | – | Growth Rate (U2OS; 0 h, replicate number 2): 0.69
CC(CNS(=O)(=O)C(C)C)c1ccc(-c2ccc(C#N)cc2)cc1 (configuration not stated) | 0.92 | 0.82 | 0.83 | -0.35 | – | -0.18 | -0.01 | 0 | 0.16 | 0.05 | 0.22 | 0.51 | – | 0.81 | 0.73 | 0.14 | -0.76 | 0.02 | 0.43 | 0.84 | Growth Rate (Fibroblast; 0 h, replicate number 1): 0.04; Growth Rate (Fibroblast; 12 h, replicate number 1): -0.89; Growth Rate (Fibroblast; 18 h, replicate number 1): -0.2; Growth Rate (U2OS; 0 h, replicate number 2): 0.02; Growth Rate (U2OS; 24 h, replicate number 1): 0.9
CC(C)(O)c1ccc2c(c1)ncn2-c1cccc(-c2ccccc2C#N)c1 | – | – | – | 0.78 | -0.24 | 0.77 | 0.2 | 0.65 | 0.48 | 0.73 | 0.54 | – | 0.93 | – | – | 0.28 | -0.67 | 0.33 | 0.52 | – | Growth Rate (Fibroblast; 0 h, replicate number 1): 0.6; Growth Rate (Fibroblast; 0 h, replicate number 2): -0.48; Growth Rate (Fibroblast; 12 h, replicate number 1): 0.43; Growth Rate (Fibroblast; 18 h, replicate number 1): 0.64; Growth Rate (U2OS; 0 h, replicate number 2): 0.83
Cc1c(NC(=O)c2cccn(-c3ccc(F)cc3)c2=O)ccc(Oc2ccnc(NC(=O)C3CC3)c2)c1C | 0.52 | – | 0.85 | 0.59 | 0.27 | – | 0.78 | – | 0.94 | – | – | – | -0.05 | 0.92 | – | – | 0.99 | – | – | 0.96 | Growth Rate (Fibroblast; 0 h, replicate number 2): 0.16; Growth Rate (U2OS; 0 h, replicate number 2): -0.46
CN1CCN([C@H]2CC[C@@H](n3cc(-c4ccc(Oc5ccccc5)cc4)c4c(N)ncnc43)CC2)CC1 | -1 | 0.01 | -0.15 | -0.98 | – | -0.89 | -0.8 | -0.69 | -0.6 | -0.55 | -0.44 | -0.46 | -1 | -0.26 | 0.03 | 0.42 | -0.98 | -0.72 | -0.51 | -0.03 | Growth Rate (U2OS; 6 h, replicate number 1): -0.82; Growth Rate (U2OS; 6 h, replicate number 2): -0.23; Growth Rate (U2OS; 24 h, replicate number 1): -0.17
Cc1c(C(=O)Nc2cccc(C(F)(F)F)c2)cc(-c2ccccc2)n1CCCN1CCOCC1.Cl | -0.95 | 0.89 | – | -0.17 | -0.54 | 0.11 | 0.01 | 0.32 | 0.27 | 0.46 | 0.37 | 0.84 | 0.27 | – | 0.88 | – | 0.1 | 0.65 | 0.73 | 0.95 | –
COc1ccc(CCCN2CCC(COC(c3ccccc3)c3ccccc3)CC2)cc1.Cl | – | – | – | -0.53 | -0.09 | -0.23 | 0.28 | -0.02 | 0.26 | 0.24 | 0.31 | -0.23 | 0.33 | – | – | 0.17 | -1 | -0.74 | -0.39 | – | Growth Rate (Fibroblast; 12 h, replicate number 1): -0.98; Growth Rate (Fibroblast; 18 h, replicate number 1): -0.16
Cl.Cl.O=[N+]([O-])c1ccc(CN2CCOCCOCCN(Cc3ccc([N+](=O)[O-])cc3)CCOCC2)cc1 | – | 0.21 | 0.69 | -0.5 | -0.29 | 0.04 | 0.2 | 0.13 | 0.39 | 0.2 | 0.52 | 0.84 | – | 0.28 | 0.56 | -0.06 | -0.71 | 0.3 | 0.63 | 0.76 | Growth Rate (Fibroblast; 0 h, replicate number 1): 0.74; Growth Rate (Fibroblast; 12 h, replicate number 1): -0.95; Growth Rate (Fibroblast; 18 h, replicate number 1): -0.4; Growth Rate (U2OS; 6 h, replicate number 1): -0.05; Growth Rate (U2OS; 6 h, replicate number 2): 0.19; Growth Rate (U2OS; 24 h, replicate number 1): 0.67
O=C(Nc1cccc(C(F)(F)F)c1)c1cc(Cl)ccc1O | -0.98 | 0.59 | 0.4 | -0.8 | -0.84 | -0.85 | -0.56 | -0.77 | -0.41 | -0.67 | -0.3 | -0.46 | -0.07 | 0.63 | 0.41 | 0.08 | -0.88 | -0.65 | -0.55 | 0.27 | Growth Rate (Fibroblast; 18 h, replicate number 1): 0.8; Growth Rate (U2OS; 6 h, replicate number 1): 0.96; Growth Rate (U2OS; 6 h, replicate number 2): 0.71; Growth Rate (U2OS; 24 h, replicate number 1): 0.28
